These results are taken from patent publication EP0404945A1 (priority 1989, dated 1990).

The structures appear in SMILES notation. Where two headings read alike, the source gives them in different places.

In data set [1] the test system is Colibacillus. The experiment in a line: microbe, parasite or virus in culture. It is filed as cell-based. To be noted: read-out: Efficiency of the preparation, % Colibacillus.
Data set [2] relates to Staphylococcus aureus. Kind of data set: microbe, parasite or virus in culture. It is filed as cell-based. To be noted: read-out: Efficiency of the preparation, % Staphylococcus aureus.
In data set [3] the test system is Virus of hepatitis B. Kind of data set: microbe, parasite or virus in culture. To be noted: 0.5 h, read-out: Death of viruses (%) at 30 minutes exposure, Virus of hepatitis B.
Data set [4] concerns Infectant of poliomyelitis.
Data set [5] relates to ascarid ovi. Kind of data set: animal or person. It is filed as in vivo, pig.ascarid. Particulars: read-out: Death of ascarid ovi, % Tests laboratory.
For data set [6], the system named is Alternaria radicina. It is filed as cell-based.
The test system of data set [7] is Aspergillus niger. It counts as cell-based.
Data set [8] has as its system Fusarium oxysporum. It counts as cell-based.
Data set [9] has as its system Helminthosporum saturem. It is filed as cell-based.
Data set [10] concerns Venturia inaequalis. It counts as cell-based.
Data set [11] concerns Penicillium sporum. It is filed as cell-based.
Data set [12] has as its system Candida albicans. Kind of data set: microbe, parasite or virus in culture. It is filed as cell-based.
The test system of data set [13] is Candida tropicalis. Kind of data set: microbe, parasite or virus in culture. It is filed as cell-based.
Data set [14] relates to houseflies. To be noted: house fly, in vivo.
The conditions of data set [15]: in vivo; cited from earlier work.
Data set [16] concerns virus of influenza, type A, (H1N1). Kind of data set: microbe, parasite or virus in culture. Particulars: H1N1, 0.5 h, read-out: Death of viruses (%) at 30 minutes exposure, Virus of influenza A.
For data set [17], the system named is houseflies. The experiment in a line: whole plant or invertebrate. To be noted: Musca domestica.
The mark [18] stands for this setting: 2 h, read-out: Death of test fungi, % to the control, Candida albicans 2 hrs.
The mark [19] stands for this setting: 20 h, read-out: Death of test fungi, % to the control, Candida albicans 20 hrs.
[20] abbreviates: 2 h, read-out: Death of test fungi, % to the control, Candida tropicalis 2 hrs.
Setting [21] is: 20 h, read-out: Death of test fungi, % to the control, Candida tropicalis 20 hrs.
Where [22] appears, read: 72 h, read-out: Death of flies, % after 72 hours.

Turning to `O=[N+]([O-])c1ccc(C(Cl)C(CCl)NP(=O)(O)O)cc1` (stereo not drawn) [Example 3], the killing at 0.5 % in data set [1] and in data set [2] was 100% throughout. For the same compound, the killing at 1 % in [3] is 100%. In addition, in [4], the “Death of viruses (%) at 60 minutes exposure, Infectant of poliomyelitis” value was 80%. Besides, the killing at 3 % in data set [5] amounted to 100%. The “Mycelium growth inhibition, % to the control, Alternaria radicina” value in data set [6] is reported as 80%. Moreover, the “Mycelium growth inhibition, % to the control, Aspergillus niger” value in data set [7] was 100%. In data set [8], the “Mycelium growth inhibition, % to the control, Fusarium oxisporum” value was 68%. For the same compound, the “Mycelium growth inhibition, % to the control, Helminthosporum saturem” value in data set [9] stood at 100%. Besides, the “Mycelium growth inhibition, % to the control, Venturia inaequalis” value in data set [10] came to 98%. Besides, the “Mycelium growth inhibition, % to the control, Penicillium sporum” value in [11] came to 100%. Besides, the killing at 0.05 % is 100% in data set [12] (setting [18]), 100% in data set [12] (setting [19]), 99% in data set [13] (setting [20]) and 100% in [13] (setting [21]).
As to `COP(=O)(OC)C(O)C(Cl)(Cl)Cl` (stereo not drawn) [Known insecticidal preparation, O,O-Dimethyl-(1-hydroxy-2,2,2-tri-chloroethyl)-phosphonate], the “Death of flies, % Tests laboratory” value in data set [14] turned out to be 90%. Also, in [14] (48 h), the “Death of flies, % after 48 hours” value worked out at 81%. Further, the “Death of flies, % after 72 hours” value in data set [14] (72 h) is recorded as 84%. Also, the LD50 in data set [15] is given as 225 - 1,200 mg/kg.
For the compound `O=S(=O)(NCl)c1ccccc1` [Known preparation], the killing at 1 % was 50% in data set [3] and 25% in data set [16]. Moreover, the mortality at 3 % was 86% in [17] (24 h, read-out: Death of flies, % after 24 hours) and 92% in data set [17] (setting [22]). Moreover, the mortality at 2 % in [17] (48 h, read-out: Death of flies, % after 48 hours) was determined as 81%; in [17] (setting [22]), 84%.
As to `O=[N+]([O-])c1ccc(C(O)C(CCl)NP(=O)(O)O)cc1` (stereo not drawn) [Example 2, 1-para-nitrophenyl-1--chloro-3-propanolamidophosphoric acid], the killing at 0.5 % in data set [1] and in [2] was 100% each time. For the same compound, the “Death of viruses (%) at 60 minutes exposure, Infectant of poliomyelitis” value in [4] was 60%. Besides, in data set [5], the killing at 3 % came to 100%. Further, the “Mycelium growth inhibition, % to the control, Alternaria radicina” value in data set [6] is 60%. In addition, in data set [7], the “Mycelium growth inhibition, % to the control, Aspergillus niger” value came to 100%. Also, the “Mycelium growth inhibition, % to the control, Fusarium oxisporum” value in data set [8] turned out to be 69%. Besides, in data set [9], the “Mycelium growth inhibition, % to the control, Helminthosporum saturem” value was 88%. Further, in data set [10], the “Mycelium growth inhibition, % to the control, Venturia inaequalis” value was determined as 64%. Besides, in data set [11], the “Mycelium growth inhibition, % to the control, Penicillium sporum” value was found to be 68%. Further, the killing at 0.05 % was determined as 99% in data set [12] (setting [18]), 100% in data set [12] (setting [19]), 90% in data set [13] (setting [20]) and 100% in data set [13] (setting [21]).
